Results published in ChEMBL document CHEMBL1201861, “Genomics of Drug Sensitity in Cancer screening data, Wellcome Trust Sanger Institute”.

Columns and labels:
Assay in all cases: cells
Assay type in all cases: functional, cell-based
Conditions in all cases: Homo sapiens
[1] = test system: C8166;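 further: growth inhibition of human C8166 cells measured by a cell viability assay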
[2] = test system: JAR;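 further: growth inhibition of human JAR cells determined with a cell viability assay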
[3] = test system: BT-474
[4] = test system: HOP-62;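 further: cell growth inhibition determined with a viability assay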
[5] = test system: KY821;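 further: growth inhibition of human KY821 cells, read out by a cell viability assay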
[6] = test system: NCI-H747;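 further: growth inhibition of human NCI-H747 cells, read out by a cell viability assay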
[7] = test system: DSH1;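 further: growth inhibition of human DSH1 cells, measured with a cell viability readout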
[8] = test system: NCI-H82;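 further: growth inhibition of NCI-H82 cells, measured with a cell viability readout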
[9] = test system: TE-9;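 further: cell growth inhibition, measured with a cell viability readout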
[10] = test system: LB373-MEL-D;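 further: growth inhibition of the cell line, read out in a cell viability assay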
[11] = test system: LNCaP-Clone-FGC
[12] = test system: NB13;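 further: cell viability readout measuring growth inhibition of human NB13 cells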
[13] = test system: SK-NEP-1;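 further: growth inhibition of human SK-NEP-1 cells, read out by a cell viability assay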
[14] = test system: K5
[15] = test system: 8-MG-BA;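 further: growth inhibition of 8-MG-BA cells, read out with a cell viability assay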
[16] = test system: MLMA;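 further: growth inhibition of MLMA cells (human), determined through a cell viability readout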
[17] = test system: KMOE-2;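 further: growth inhibition of human KMOE-2 cells, read out with a cell viability assay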
[18] = test system: OCUB-M;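 further: growth inhibition of the cancer cell line, read out through a cell viability assay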
[19] = test system: MS-1;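 further: growth inhibition of MS-1 cells, read out by cell viability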
[20] = test system: D-263MG
[21] = test system: VA-ES-BJ;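 further: growth inhibition of the VA-ES-BJ cell line, read out by a cell viability assay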
[22] = test system: SK-UT-1;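 further: growth inhibition of SK-UT-1 cells, measured by a cell viability assay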
[23] = test system: Becker;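 further: growth inhibition of Becker cells, read out with a cell viability assay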
[24] = test system: OS-RC-2;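 further: growth inhibition of human OS-RC-2 cells, measured by a cell viability assay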
[25] = test system: MHH-NB-11;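 further: growth inhibition of human MHH-NB-11 cells, read out by a cell viability assay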
[26] = test system: ALL-PO;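 further: growth inhibition of ALL-PO cells, read out by a cell viability assay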
[27] = test system: SF-539;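 further: Read-out is a cell viability assay, with IC50 reflecting inhibition of cell growth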
[28] = test system: MOLT-16;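 further: growth inhibition of human MOLT-16 cells, read out with a cell viability assay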
[29] = test system: MSTO-211H
[30] = test system: SCC-15;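 further: growth inhibition of SCC-15 cells, read out with a cell viability assay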
[31] = test system: NCI-H510A;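 further: growth inhibition of NCI-H510A cells, read out with a cell viability assay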
[32] = test system: ES8;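 further: growth inhibition of human ES8 cells, read out with a cell viability assay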
[33] = test system: NCI-H1299;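 further: growth inhibition of human NCI-H1299 cells, read out by a cell viability assay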
[34] = test system: GI-ME-N;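 further: growth inhibition of human GI-ME-N cells, read out with a cell viability assay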
[35] = test system: NCI-H1648;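 further: cell viability assay measuring inhibition of NCI-H1648 cell growth, from the Sanger screening data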
[36] = test system: MPP-89;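 further: growth inhibition of human MPP-89 cells, read out with a cell viability assay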
[37] = test system: LB771-HNC;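 further: growth inhibition of LB771-HNC human cells, read out with a cell viability assay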
[38] = test system: NCI-H1650;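 further: growth inhibition of human NCI-H1650 cells measured by a cell viability assay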
[39] = test system: TE-5;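 further: inhibition of cell growth, read out by a cell viability assay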
[40] = test system: IST-MEL1;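 further: growth inhibition of the cell line, read out with a cell viability assay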
[41] = test system: MOLT-4;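 further: growth inhibition of MOLT-4 cells, determined with a cell viability readout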
[42] = test system: SNU-5;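 further: cell viability readout used to measure growth inhibition in human NCI-SNU-5 cells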
[43] = test system: SNU1;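 further: growth inhibition of human NCI-SNU-1 cells, measured with a cell viability assay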
[44] = test system: KU812 cell line;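 further: growth inhibition of KU812 cells, read out with a cell viability assay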
[45] = test system: NCI-H2126;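 further: growth inhibition of the cancer cell line, determined with a cell viability readout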
[46] = test system: NB10;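 further: growth inhibition of NB10 cells, read out by a cell viability assay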
[47] = test system: U-266
[48] = test system: no-10;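 further: growth inhibition of no-10 cells, read out with a cell viability assay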
[49] = test system: HL-60;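 further: growth inhibition of human HL-60 cells, read out with a cell viability assay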
[50] = test system: BV-173
[51] = test system: EW-3;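 further: cell viability assay read-out, IC50 reflects inhibition of growth of the EW-3 cells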
[52] = test system: KINGS-1;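 further: cell viability assay measuring suppression of KINGS-1 cell growth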
[53] = test system: J-RT3-T3-5;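 further: cell viability assay measuring growth inhibition of human J-RT3-T3-5 cells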
[54] = test system: COLO-800;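 further: growth inhibition of COLO-800 cells, read out with a cell viability assay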
[55] = test system: GAK
[56] = test system: GR-ST
[57] = test system: KS-1
[58] = test system: NCI-H1304
[59] = test system: AM-38
[60] = test system: EM-2
[61] = test system: HAL-01
[62] = test system: DMS-79
[63] = test system: KALS-1
[64] = test system: COR-L88
[65] = test system: A3-KAW
[66] = test system: HCC2218

COc1cc(Nc2c(C#N)cnc3cc(OCCCN4CCN(C)CC4)c(OC)cc23)c(Cl)cc1Cl [BOSUTINIB]
IC50 [1]: > 2 µM
IC50 [2]: 1.49 µM
IC50 [3]: > 2 µM
IC50 [4]: > 2 µM
IC50 [5]: 1.13 µM
IC50 [6]: > 2 µM
IC50 [7]: > 2 µM
IC50 [8]: > 2 µM
IC50 [9]: > 2 µM
IC50 [10]: > 2 µM
IC50 [11]: > 2 µM
IC50 [12]: > 2 µM
IC50 [13]: 0.972 µM
IC50 [14]: > 2 µM
IC50 [15]: > 2 µM
IC50 [16]: 0.907 µM
IC50 [17]: > 2 µM
IC50 [18]: > 2 µM
IC50 [19]: > 2 µM
IC50 [20]: > 2 µM
IC50 [21]: > 2 µM
IC50 [22]: > 2 µM
IC50 [23]: > 2 µM
IC50 [24]: > 2 µM
IC50 [25]: 1.31 µM
IC50 [26]: > 2 µM
IC50 [27]: > 2 µM
IC50 [28]: > 2 µM
IC50 [29]: > 2 µM
IC50 [30]: 1.62 µM
IC50 [31]: > 2 µM
IC50 [32]: > 2 µM
IC50 [33]: > 2 µM
IC50 [34]: > 2 µM
IC50 [35]: > 2 µM
IC50 [36]: > 2 µM
IC50 [37]: 0.831 µM
IC50 [38]: > 2 µM
IC50 [39]: > 2 µM
IC50 [40]: > 2 µM
IC50 [41]: > 2 µM
IC50 [42]: > 2 µM
IC50 [43]: > 2 µM
IC50 [44]: 0.341 µM
IC50 [45]: > 2 µM
IC50 [46]: > 2 µM
IC50 [47]: > 2 µM
IC50 [48]: > 2 µM
IC50 [49]: > 2 µM
IC50 [50]: 0.508 µM
IC50 [51]: 0.559 µM
IC50 [52]: > 2 µM
IC50 [53]: 1.52 µM
IC50 [54]: > 2 µM
IC50 [56]: > 2 µM
IC50 [57]: > 2 µM
IC50 [58]: > 2 µM
IC50 [59]: > 2 µM
IC50 [60]: 0.439 µM
IC50 [61]: 1.09 µM
IC50 [62]: > 2 µM
IC50 [63]: > 2 µM
IC50 [64]: > 2 µM
IC50 [65]: 0.792 µM
IC50 [66]: > 2 µM

CC(C)=CC[C@@H](O)C1=CC(=O)c2c(O)ccc(O)c2C1=O [SHIKONIN]
IC50 [1]: 0.408 µM
IC50 [2]: 3.26 µM
IC50 [3]: 0.208 µM
IC50 [4]: 1.16 µM
IC50 [5]: 0.747 µM
IC50 [6]: 0.441 µM
IC50 [7]: 10.6 µM
IC50 [8]: > 16 µM
IC50 [9]: 0.408 µM
IC50 [10]: 0.391 µM
IC50 [11]: > 16 µM
IC50 [12]: 0.317 µM
IC50 [13]: 1.08 µM
IC50 [14]: 0.734 µM
IC50 [15]: 0.0856 µM
IC50 [16]: 0.539 µM
IC50 [17]: 1.24 µM
IC50 [18]: 0.865 µM
IC50 [19]: 1.77 µM
IC50 [20]: 2.23 µM
IC50 [21]: 0.401 µM
IC50 [22]: < 0.0625 µM
IC50 [23]: 1.58 µM
IC50 [24]: 0.314 µM
IC50 [25]: 0.486 µM
IC50 [26]: 0.315 µM
IC50 [27]: 0.857 µM
IC50 [28]: 2.76 µM
IC50 [29]: > 16 µM
IC50 [30]: 0.65 µM
IC50 [31]: > 16 µM
IC50 [32]: 0.778 µM
IC50 [33]: 1.07 µM
IC50 [34]: 0.552 µM
IC50 [35]: 11.1 µM
IC50 [36]: 0.857 µM
IC50 [37]: > 16 µM
IC50 [38]: 1.38 µM
IC50 [39]: 1 µM
IC50 [40]: 15 µM
IC50 [41]: 0.41 µM
IC50 [42]: 9.54 µM
IC50 [43]: 1.6 µM
IC50 [44]: < 0.0625 µM
IC50 [45]: 15.6 µM
IC50 [46]: 1.34 µM
IC50 [47]: 0.675 µM
IC50 [48]: 0.29 µM
IC50 [49]: 1.92 µM
IC50 [50]: 0.436 µM
IC50 [51]: 0.722 µM
IC50 [52]: 14.1 µM
IC50 [53]: 2.09 µM
IC50 [54]: > 16 µM
IC50 [55]: 1.04 µM
IC50 [56]: 0.102 µM
IC50 [57]: 0.0415 µM
IC50 [58]: > 16 µM
IC50 [59]: 0.0963 µM
IC50 [60]: 0.977 µM
IC50 [61]: 0.196 µM
IC50 [62]: > 16 µM
IC50 [63]: 1.32 µM
IC50 [64]: > 16 µM
IC50 [65]: 2.14 µM
IC50 [66]: 0.496 µM
